Measured values published in paper PMC9267097, “Synthesis, In Vitro, and Computational Studies of PTP1B Phosphatase Inhibitors Based on Oxovanadium(IV) and Dioxovanadium(V) Complexes” (International Journal of Molecular Sciences, 2022).

Key:
PTP1B phosphatase = target: T1, PTP1B phosphatase (Homo sapiens, UniProt P18031); test: Recombinant PTP1B assay (pNPP substrate); assay type: biochemical; details: for inhibitory effect on PTP1B: 78.125 nM (lowest statistically significant concentration); for Ki: calculated as Ki = IC50/(S/Km + 1), S 1 mM, Km 0.7 mM, competitive type assumed from docking, read-out: Ki ± SD; for IC50: recombinant PTP1B 10 nM, 1 mM pNPP, 37 °C, HEPES pH 7.4; for inhibition of PTP1B: concentration range 39.063 to 625 nM
T1 construct: purchased Cayman Chemical, Ann Arbor, MI, USA
T1 sequence (P18031 1-435): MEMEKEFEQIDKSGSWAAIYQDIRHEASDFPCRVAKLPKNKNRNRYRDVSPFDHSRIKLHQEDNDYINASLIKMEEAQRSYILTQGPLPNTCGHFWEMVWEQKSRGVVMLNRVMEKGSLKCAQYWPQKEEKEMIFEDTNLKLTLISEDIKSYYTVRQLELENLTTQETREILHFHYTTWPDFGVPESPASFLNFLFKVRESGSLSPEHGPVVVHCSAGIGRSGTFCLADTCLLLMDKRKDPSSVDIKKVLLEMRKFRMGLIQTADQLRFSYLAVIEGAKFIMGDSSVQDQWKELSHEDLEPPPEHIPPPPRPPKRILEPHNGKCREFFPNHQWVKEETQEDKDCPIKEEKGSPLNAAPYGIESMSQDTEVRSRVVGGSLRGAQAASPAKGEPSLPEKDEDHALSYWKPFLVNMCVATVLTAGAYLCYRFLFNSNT
Procedure: The experiment was carried out on 96-well plates. The final concentration of PTP1B phosphatase in the reaction samples was […] (10 nM). […] The enzyme activities of PTP1B phosphatase were evaluated at 37 °C using 1 mM chromogenic substrate para-nitrophenyl phosphate (pNPP) in 10 mM HEPES buffer pH 7.4. The increase in absorbance (due to the formation of para-nitrophenols) is linearly proportional to the concentration of enzyme activity (with excessive substrate, i.e., zero-order kinetics) and was measured at 405 nm using DigiRead Communication Software (version 1.2.0.2., Dan Kittrich, Asys Hitech GmbH, Eugendorf, Austria) on the Jupiter microplate reader (Biogenet, Józefów, Poland). Data were expressed as the percentage of untreated enzyme (control).

[1] = tested on: MDA-MB-231 breast cancer cell line; test: Cell viability assay (MTT); assay type: cell-based; details: 24 h
Procedure: (§1) The MCF-7 and MDA-MB-231 breast cancer cell lines and the human keratinocyte HaCaT cell line were obtained from the American Type Culture Collection (ATCC, Manassas, VA, USA). Dulbecco’s modified eagle medium supplemented with 10% fetal bovine serum (FBS) and 1% penicillin/streptomycin was used to cultivate the cell lines. The cells were cultured at 37 °C in a 5% CO2 atmosphere.
(§2) According to the general protocol, a cell viability assay (MTT assay) was performed. […] The chemicals were dissolved in a growth medium containing 1% penicillin/streptomycin. After 24 h, 0.5 mg/mL of MTT solution (3-[4,5-dimethylthiazol-2-yl]-2,5-diphenyl-tetrazolium bromide) was added. 100 µL of DMSO was added to each well once the purple precipitate was clearly visible under the microscope. A microplate reader (Biogenet, Jozefow, Poland) and DigiRead Communication Software were used to measure the absorbance at 492 nm (Asys Hitech GmbH, Eugendorf, Austria). Data were expressed as the percentage of untreated cells (control).

[2] = tested on: human keratinocyte HaCaT cell line; test: Cell viability assay (MTT); assay type: cell-based; details: 24 h
Procedure: as §1, §2

[3] = cited from earlier work; for equivalents of L-ascorbic acid: antioxidant activity towards superoxide radical anion
[4] = tested on: MCF-7 breast cancer cell line; test: Cell viability assay (MTT); assay type: cell-based; details: 24 h
Procedure: as §1, §2

Compound	inhibitory effect on PTP1B (PTP1B phosphatase)	Ki (PTP1B phosphatase)	IC50 (PTP1B phosphatase)	equivalents of L-ascorbic acid [3]	inhibition of PTP1B (PTP1B phosphatase)	cell viability (% of control) ([1]; MDA-MB-231, 25 µM)	cell viability (% of control) ([1]; MDA-MB-231, 50 µM)	cell viability (% of control) ([1]; MDA-MB-231, 100 µM)	other results
O.O.O.O.O=C([O-])c1cccc(C(=O)[O-])n1.[O]=[V+2] [Compound 1, [VO(dipic)(H2O)2]·2 H2O]	17%	0.256 ± 0.0153 µM	0.628 ± 0.0391 µM	2.359					cytotoxic effect ([1]; MDA-MB-231, 50 µM): 25%; cytotoxic effect (in words) ([2]; 50 µM): no cytotoxic effect; effect on cell growth (in words) ([2]; low concentrations): improved cell growth at low concentrations
O.O=C1[O][V-](=[O])(=[O])[O]C(=O)c2cccc1n2.c1ccc(-c2cccc[nH+]2)cc1 [Compound 5, [VOO(dipic)](2-phepyH)·H2O]		0.0667 ± 0.0033 µM	0.167 ± 0.008 µM		38–68%				calculated equivalent towards L-ascorbic acid ([3]; antioxidant activity towards superoxide anion radicals): 0.68
[Na+].[Na+].[Na+].[O]=[V]([O-])([O-])[O-] [Sodium orthovanadate, reference compound]					31–67%				inhibition of enzymatic activity of PTP1B (in words) (PTP1B phosphatase; complexes and orthovanadate 39.0625 nM to 5 µM, ligands 500 nM to 5 µM): inhibited the enzymatic activity of PTP1B phosphatase in a concentration-dependent manner
O.O.O=C1CNCC(=O)[O][V](=[O])[O]1.c1ccc(-c2ccccn2)nc1 [Compound 3, [VO(ida)(bipy)]·2 H2O]	25%	0.221 ± 0.0191 µM	0.543 ± 0.0484 µM	5.43		76%	55%	46%	
COc1ccnc(-c2cc(OC)ccn2)c1.O.O.O=C([O-])c1cccc(C(=O)[O-])n1.[O]=[V+2] [Compound 4]		0.0742 ± 0.0041 µM	0.185 ± 0.0098 µM		31–67%				cell viability (% of control) ([4]; MCF-7, 25 µM): 86%; cell viability (% of control) ([4]; MCF-7, 50 µM): 61%; cell viability (% of control) ([4]; MCF-7, 100 µM): 53%
O.O=C([O-])c1cccc(C(=O)[O-])n1.[O]=[V+2].c1ccc(-c2ccccn2)nc1 [Compound 2, [VO(dipic)(bipy)]·H2O]	19%	0.173 ± 0.0172 µM	0.426 ± 0.0371 µM	0.936		65%	56%	44%	
